Measurements published in paper PMC4340626, “Neuronal Expression of the Human Neuropeptide S Receptor NPSR1 Identifies NPS-Induced Calcium Signaling Pathways” (PLoS ONE, 2015).
“Also recorded” adds a separate entry of the source. Where a SMILES comes first, the peptide text is derived from it.

Columns and labels:
IP3R = assay: IP3 receptor antagonist 2-APB against NPS-evoked calcium signals; format: cell-based, mouse
[1] = system: transient receptor potential channel family; settings: cited from earlier work
Text: In previous in vitro studies, NPSR1 has been expressed in HEK293 or CHO cells. These studies focused on comparing NPS and NPSR1 variants with respect to their Gαq and Gαs activity, i.e. their efficiency to induce intracellular calcium responses and cAMP production upon receptor stimulation, analyzing population responses from plate readers instead of confocal single-cell calcium imaging.

SERCA-ATPases = assay: SERCA inhibition with CPA: calcium leakage and effect on NPS-evoked calcium signals; format: cell-based, mouse
NPSR1 [2] = assay: NPSR1 antagonist SHA68 against NPS-evoked calcium signals in NPSR1-expressing hippocampus neurons; format: cell-based, human
[3] = system: Colo205 cells expressing NPSR1; settings: cited from earlier work
Text: (§1) Despite these numerous biological functions, little is known about the molecular mechanisms underlying NPS receptor activity. […] However, the intracellular pathways downstream to NPSR1 activation have not been identified in deta ...

human NPSR1 variants = settings: HEK293 or CHO cells; ref [1],[10],[23]–[25]; cited from earlier work
Text: as §1

SOCE [4] = assay: SOCE blockers on slow component of NPSR1-evoked calcium signals; format: cell-based, mouse; settings: NPS 500 nM
[5] = system: untransfected hippocampus neurons; assay: Calcium imaging of NPS in untransfected hippocampus neurons (control); format: cell-based, mouse; settings: NPS 500 nM, 936 untransfected neurons
[6] = system: NPSR1-expressing hippocampus neurons, influx of extracellular calcium; assay: NPS-evoked calcium signals in calcium-free solution / slow component (calcium influx); format: cell-based, mouse; settings: NPS 500 nM, mean ± SD
[7] = system: voltage activated calcium channels (Cav); assay: Cav blocker cocktail on NPS-evoked calcium signals; format: cell-based, mouse; settings: NPS 500 nM, first application, 148 neurons; mean ± SD
[8] = system: store-operated calcium entry (SOCE); assay: Store-operated calcium entry on re-addition of Ca2+ after NPS in calcium-free solution; format: cell-based, mouse; settings: NPS 500 nM, n = 47 cells, mean ± SD
[9] = target: T1, human neuropeptide S receptor (NPSR1) (Homo sapiens, UniProt Q6W5P4); assay: Single-cell calcium imaging (Fluo4) of NPS-evoked calcium signals in hippocampus neurons expressing NPSR1-mCherry; format: cell-based
T1 construct: expressed in transfected cells; host or cells: primary hippocampal neurons of P0-P2 C57BL/6 mice, transduced with AAV6 AAV-NPSR1-TS-mCherry-ER (hSyn promoter)
T1 sequence (Q6W5P4 1-371): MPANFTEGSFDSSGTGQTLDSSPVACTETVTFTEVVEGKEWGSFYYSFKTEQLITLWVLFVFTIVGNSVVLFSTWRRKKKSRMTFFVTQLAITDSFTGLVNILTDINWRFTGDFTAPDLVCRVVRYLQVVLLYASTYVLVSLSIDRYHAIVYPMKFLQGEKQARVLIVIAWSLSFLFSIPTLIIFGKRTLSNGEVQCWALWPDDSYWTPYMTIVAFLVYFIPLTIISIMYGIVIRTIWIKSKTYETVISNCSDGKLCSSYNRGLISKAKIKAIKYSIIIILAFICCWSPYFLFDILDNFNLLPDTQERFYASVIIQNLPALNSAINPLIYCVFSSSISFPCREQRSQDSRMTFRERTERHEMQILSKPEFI

[10] = system: ryanodine receptors (RyR); assay: Ryanodine receptor contribution to NPS-evoked calcium signals; format: cell-based, mouse; settings: NPS 500 nM, mean ± SD
NPSR1 [11] = settings: cited from earlier work
STIM-mediated SOCE = settings: HeLa cells overexpressing STIM1; ref [50]; cited from earlier work
Text: Store-operated calcium channels (SOCs) responsible for SOCE are known to be composed by the calcium release-activated calcium modulator 1 (ORAI) and members of the transient receptor potential type c (TRPC) channel families. Channel-activation is induced by interaction with the ER calcium sensor stromal interaction molecule (STIM).

SOCE [12] = system: SOCE; parameters: method as in PMID 12149283, PMID 2173565, PMID 18285445, PMID 21541286; settings: non-excitable cells and neurons; ref [36]–[38], [39]; cited from earlier work
[13] = system: NPSR1-mediated calcium signals (action potentials suppressed); format: cell-based, mouse
[14] = repeated NPS 500 nM, 675 s interval, 111 neurons, mean ± SD, ANOVA p = 0.0133

2-aminoethoxydiphenyl borate [2-APB]
effect of 2-APB on responses to NPS (IP3R): prevented responses to NPS
normalized mean fluorescence amplitude evoked by NPS after 2-APB washout (IP3R): 2.2 ± 2.13
normalized mean fluorescence amplitude evoked by NPS in presence of 2-APB (IP3R): 0.39 ± 0.61
modulation of transient receptor potential channel family members [1]: modulates several members of the transient receptor potential channel family

CC(O)=C1C(=O)C2C3c4cccc5[nH]cc(c45)CC3C(C)(C)N2C1=O (centres unmarked) [CPA, cyclopiaconic acid]
normalized mean amplitude evoked by NPS after CPA (SERCA-ATPases; CPA 30 μM (500–650 s), NPS 500 nM, n = 397, mean ± SD, vs baseline p = 0.9992): 0.27 ± 0.4
transient increase in cytosolic calcium evoked by CPA (fluorescence amplitude) (SERCA-ATPases; CPA 30 μM, 397 neurons, mean ± SD): 1.6 ± 1.17
effect of CPA on NPSR1-mediated calcium signals (SERCA-ATPases; CPA 30 μM, NPS 500 nM, n = 397, ANOVA p < 0.0001): abolished NPSR1-mediated calcium signals

CSCC[C@H](NC(=O)CNC(=O)[C@@H](NC(=O)CNC(=O)[C@@H](NC(=O)CNC(=O)[C@H](CC(N)=O)NC(=O)[C@H](CCCNC(=N)N)NC(=O)[C@H](Cc1ccccc1)NC(=O)[C@@H](N)CO)C(C)C)[C@@H](C)O)C(=O)N[C@@H](CCCCN)C(=O)N[C@@H](CCCCN)C(=O)N[C@H](C(=O)N[C@@H](CO)C(=O)N[C@@H](Cc1ccccc1)C(=O)N[C@@H](CCC(N)=O)C(=O)N[C@@H](CCCNC(=N)N)C(=O)N[C@@H](C)C(=O)N[C@@H](CCCCN)C(=O)N[C@@H](CO)C(=O)O)[C@@H](C)O [NPS, neuropeptide S] (H-SFRNGVGTGMKKTSFQRAKS-OH; N-terminus and C-terminus assumed)
normalized mean fluorescence amplitude, NPS before SHA68 (NPSR1 [2]; NPS 250 nM, 204 neurons, mean ± SD): 2.9 ± 1.8
cell proliferation and MAP kinase phosphorylation [3]: dose-dependent stimulation of cell proliferation and MAP kinase phosphorylation
calcium mobilization and cAMP accumulation (human NPSR1 variants): elicit calcium mobilization and cAMP accumulation
mean fluorescence amplitude evoked by NPS before CPA (SERCA-ATPases; NPS 500 nM, 397 neurons, mean ± SD): 4.4 ± 2.69
integral of response amplitude of slow component, control conditions (no SOCE blocker) (SOCE [4]; 229 cells, mean ± SD): 36.6 ± 8.3 x 10^4 (arbitrary units)
calcium response to NPS in untransfected neurons [5]: no increase in normalized mean fluorescence intensity could be detected; also recorded: calcium responses could not be detected
integral of response amplitude over time, slow component, control conditions ([6]; 3 mM CaCl2, 229 cells): 36.6 ± 8.3 x 10^4 (arbitrary units)
integral of response amplitude over time, slow component, Ca2+-free solution ([6]; Ca2+-free, 5 mM EGTA, 65 neurons, t-test p < 0.0001): 23.4 ± 3.9 x 10^4 (arbitrary units)
amplitude of initial fast component of NPS-evoked calcium signal, calcium-free conditions ([6]; nominally calcium-free, 5 mM EGTA, 65 neurons, t-test vs control p = 0.1054): 2.9 ± 1.9
integral of response amplitude during recovery phase, control conditions [7]: 36.2 ± 7.5 x 10^4 (arbitrary units)
mean fluorescence amplitude evoked by NPS, first application before U73122 (PLC): 3.44 ± 1.27
normalized mean fluorescence amplitude evoked by NPS, first application before 2-APB (IP3R; NPS 500 nM, 166 neurons, mean ± SD): 3.86 ± 2.34
integral of response amplitude after re-addition of Ca2+, NPS applied once again under Ca2+-free conditions ([8]; ANOVA p < 0.0001): 5.9 ± 4.9 x 10^4 (arbitrary units)
integral of response amplitude after re-addition of Ca2+, first NPS application under calcium-free conditions ([8]; control without NPS 2.1 ± 3.2 x 10^4): 14.8 ± 7.2 x 10^4 (arbitrary units)
increase in normalized mean fluorescence (f/f0) over baseline [9]: 3.5 ± 2.9
rise time of NPSR1-dependent calcium signal (5–95% of max) ([9]; NPS 500 nM, initial rapid component, mean ± SD): 9.47 ± 5.77 s
decay time of NPSR1-dependent calcium signal (95–5% of max) ([9]; NPS 500 nM, slower recovery phase, mean ± SD): 132.71 ± 94.11 s
normalized mean fluorescence amplitude, 1st application [9, 14]: 3.6 ± 3.1
normalized mean fluorescence amplitude, 2nd application [9, 14]: 3.2 ± 3.3
normalized mean fluorescence amplitude, 3rd application [9, 14]: 2.4 ± 2.3
normalized mean fluorescence amplitude evoked by NPS prior to ryanodine ([10]; 136 neurons): 2.7 ± 1.48
normalized mean fluorescence amplitude, control recordings without ryanodine, first NPS application ([10]; 155 control neurons): 2.35 ± 1.9
normalized mean fluorescence amplitude, control recordings without ryanodine, second NPS application ([10]; 155 control neurons): 1.74 ± 1.4
amplitude of second NPS application normalized to the first, control cells ([10]; no ryanodine): 0.77 ± 0.35

O=C(NCc1ccc(F)cc1)N1CCN2C(=O)OC(c3ccccc3)(c3ccccc3)C2C1 (centres unmarked) [SHA68, 3-oxo-1,1-diphenyl-tetrahydro-oxazolo[3,4-a]pyrazine-7-carboxylic acid 4-fluoro-benzylamide]
effect of SHA68 on NPS-evoked Ca2+ signals (NPSR1 [2]): NPS application failed to induce Ca^2+ signals in the same neurons; also recorded: reduced the effect of NPS to a level non-significantly different from baseline
normalized mean fluorescence amplitude evoked by NPS after washout of SHA68 (NPSR1 [2]): 1.2 ± 1.6
normalized mean fluorescence amplitude evoked by NPS in presence of SHA68 (NPSR1 [2]): 0.5 ± 0.7
effect on NPS-mediated calcium mobilization (NPSR1 [11]): blocks NPS-mediated calcium mobilization

COc1ccc(CCCOC(Cn2ccnc2)c2ccc(OC)cc2)cc1 (centres unmarked) [SKF96365]
effect on duration and amplitude of slow component of NPSR1-evoked calcium signals (SOCE [4]; ML-9 50 μM, SKF96365 15 μM): consistently reduced the duration and amplitude of the slow component
integral of response amplitude of slow component in presence of SKF96365 (SOCE [4]; SKF96365 15 μM (300 s pre-incubation), 127 cells, mean ± SD): 30.42 ± 3.8 x 10^4 (arbitrary units)
inhibition of STIM-mediated SOCE (STIM-mediated SOCE): inhibit STIM-mediated SOCE
inhibition of SOCE (SOCE [12]): inhibit SOCE

NC1=N[C@H](O)[C@H]2[C@H]3O[C@]4(O)O[C@@H]([C@@H](O)[C@@]2(N1)[C@@H]4O)[C@]3(O)CO [TTX, tetrodotoxin]
effect of TTX on NPSR1-mediated calcium signals [13]: not affected

COc1ccc2c(c1)CC[C@@H]1[C@@H]2CC[C@]2(C)[C@@H](NCCCCCCN3C(=O)C=CC3=O)CC[C@@H]12 [U73122]
effect of U73122 on NPS-mediated calcium release (PLC): abolished NPS-mediated calcium release
mean fluorescence amplitude when U73122 and NPS were co-applied (PLC): 0.14 ± 0.14

ryanodine
normalized mean fluorescence amplitude evoked by NPS in presence of ryanodine ([10]; ryanodine 50 μM (300 s pre-incubation), 136 neurons, ANOVA p < 0.0001): 0.51 ± 0.37
amplitude of second NPS application normalized to the first, RyRs blocked ([10]; ryanodine 50 μM, t-test vs control p < 0.0001): 0.24 ± 0.25
